# Data as given in patent US20110152313A1 (MACQUARIE UNIVERSITY, priority 2008, published 2011).
# Molecular target: T1, PRKCE (Homo sapiens, UniProt Q02156)
# T1 sequence (Q02156 1-737): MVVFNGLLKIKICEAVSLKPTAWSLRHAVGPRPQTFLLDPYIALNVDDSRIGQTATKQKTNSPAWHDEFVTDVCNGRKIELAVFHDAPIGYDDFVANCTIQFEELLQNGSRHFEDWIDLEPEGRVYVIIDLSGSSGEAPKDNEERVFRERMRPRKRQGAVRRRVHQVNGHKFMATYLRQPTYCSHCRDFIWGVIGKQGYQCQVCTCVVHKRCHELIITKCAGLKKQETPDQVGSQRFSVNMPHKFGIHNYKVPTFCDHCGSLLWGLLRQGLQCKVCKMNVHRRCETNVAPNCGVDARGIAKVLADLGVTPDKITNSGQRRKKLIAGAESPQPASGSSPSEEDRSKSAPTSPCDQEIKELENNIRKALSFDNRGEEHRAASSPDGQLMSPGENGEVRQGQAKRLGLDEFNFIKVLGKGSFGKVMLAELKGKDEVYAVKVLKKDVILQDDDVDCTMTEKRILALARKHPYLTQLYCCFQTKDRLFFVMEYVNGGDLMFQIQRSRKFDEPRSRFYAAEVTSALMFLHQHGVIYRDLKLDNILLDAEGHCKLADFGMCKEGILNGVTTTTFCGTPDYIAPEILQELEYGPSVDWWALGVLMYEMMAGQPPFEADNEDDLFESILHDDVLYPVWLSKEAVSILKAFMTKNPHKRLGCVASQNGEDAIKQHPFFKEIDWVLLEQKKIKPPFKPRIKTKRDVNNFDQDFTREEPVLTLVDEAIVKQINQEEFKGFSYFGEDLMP
# Test: kinase binding constant, 11-point dose response (T7 phage, qPCR)
# Details: >30 = no inhibition at highest concentration tested
smiles,measurement,value
"Nc1nc2c(-c3ccccn3)nccc2[nH]1 [drawing 35, 4-(pyrid-2-yl)-1H-imidazo[4,5-c]pyridin-2-amine]",Kd,> 30 µM
